Experimental data reported in patent publication US6603046B1, “Bis-aromatic a,β-unsaturated ketones” (Lica Pharmaceuticals A/S, priority 1992, dated 2003).

Tested on: human PMN
Test: Zymosan-enhanced chemiluminescence, PMN
Format: cell-based
Conditions: read-out: percentage inhibition of chemiluminescence response to opsonized zymosan (mean ± SEM)
Protocol: Chemiluminescence. Monocytes were prepared from heparinized blood by metrizoate sodium-Ficoll (the same as lymphocyte proliferation). Polymorphonuclear leucocytes (PMN) were prepared from heparinized blood by dextran sedimentation and metrizoate sodium-Ficoll separation. Remaining erythrocytes were removed by hypotonic lysis. A zymosan-enhanced chemiluminescence assay was used. The assay was performed in a total volume of 5.5 ml at ambient temperature in glass scintillation vials. A Beckman L 8000 scintillation counter (placed under air-conditioned, thermostat controlled, 21±1° C. conditions) was used in the out-of-coincidence mode A 1.1 ml portion of PMN or monocyte suspension (1×10^6 cells per ml) was pre-incubated with 1.1 ml of various concentrations of licochalcone A for 30 min at 37° C. in a rotor at 20 rpm Luminol (5-amino-2,3-dihydro-1,4-phatalazinedione) obtained from Sigma Chemical Co., St Louis, Mo., U.S.A., was maintained as a stock solution of 10 mg/ml in NaOH (0.1 N) and diluted in Krebs-Ringer solution immediately before use. Each vial contained 5×10^5 pre-incubated PMN or monocyte, 4 mg of opsonized zymosan (Sigma), 50 μl of luminol solution, and 4.45 ml of Krebs-Ringer solution containing 5 mM glucose. The final concentration of luminol in the assay mixture was 5×10^−8m.

C=CC(C)(C)c1cc(/C=C/C(=O)c2ccc(O)cc2)c(OC)cc1O [Licochalcone A, licochalcone A] was tested, and the inhibition at 1 µg/mL (1 μg/ml) was 2.1 ± 3.3%, the inhibition at 2 µg/mL (2 μg/ml) was 10.3 ± 3.3% and the inhibition at 5 µg/mL (5 μg/ml) was 18.9 ± 3.7%. It also gave an inhibition at 10 µg/mL (10 μg/ml) of 29.7 ± 4.8% and an inhibition at 20 µg/mL (20 μg/ml) of 47 ± 4.3%.
